Source: patent US20070287844A1, “Novel Crystal of N-[3-(Formylamino)-4-Oxo-6-Phenoxy-4h-Chromene-7-Yl] Methanesulfonamide” (Toyama Chemical Co., Ltd., priority 2003, published 2007)

Assay: Influence of humidity: water content of crystals after standing at controlled relative humidity
Type: physicochemical
Settings: 7 days, 25° C.; for Change of water content with rising relative humidity: 22 to 93% RH
Procedure: Test Example 1 Influence of Humidity After being allowed to stand the compounds of the present invention (T-614β, T-614γ and T-614 hydrate) and the compound disclosed as Example 5 in Japanese Patent Laid-Open No. 5-97840 (T-614α) under the relative humidity 22, 51, 75 and 93% RH for 7 days at 25° C., the water content of each crystal was measured.

| Change of water content with rising relative humidity | Water content (%) (relative humidity 22% RH) | Water content (%) (relative humidity 51% RH) | Water content (%) (relative humidity 75% RH) | Water content (%) (relative humidity 93% RH) | Stability under a high humidity condition | Compound |
| --- | --- | --- | --- | --- | --- | --- |
| almost kept unchanged | 0.54 | 0.25 | 0.21 | 0.18 | stable under a high humidity condition | CS(=O)(=O)Nc1cc2occ(NC=O)c(=O)c2cc1Oc1ccccc1 [T-614β, N-[3-(formylamino)-4-oxo-6-phenoxy-4H-chromen-7-yl]methanesulfonamide] |
| almost kept unchanged | 0.28 | 0.33 | 0.52 | 0.65 | stable under a high humidity condition | CS(=O)(=O)Nc1cc2occ(NC=O)c(=O)c2cc1Oc1ccccc1 [T-614γ, N-[3-(formylamino)-4-oxo-6-phenoxy-4H-chromen-7-yl]methanesulfonamide] |
| almost kept unchanged | 4.09 | 4.15 | 4.08 | 4.03 | stable under a high humidity condition | CS(=O)(=O)Nc1cc2occ(NC=O)c(=O)c2cc1Oc1ccccc1 [T-614 hydrate, N-[3-(formylamino)-4-oxo-6-phenoxy-4H-chromen-7-yl]methanesulfonamide] |

| Compound | Change of water content with rising relative humidity | Water content (%) (relative humidity 22% RH) | Water content (%) (relative humidity 51% RH) | Water content (%) (relative humidity 75% RH) | Water content (%) (relative humidity 93% RH) | Stability under a high humidity condition |
| --- | --- | --- | --- | --- | --- | --- |
| CS(=O)(=O)Nc1cc2occ(NC=O)c(=O)c2cc1Oc1ccccc1 [T-614α, N-[3-(formylamino)-4-oxo-6-phenoxy-4H -chromen-7-yl]methanesulfonamide, reference compound] | increased with the rising of relative humidity | 0.30 | 1.29 | 2.88 | 3.62 |  |
